Reference: patent US5362752A, “Chemical compounds” (Merck & Co., Inc., priority 1993, dated 1994)

Target: T1, squalene synthase (Homo sapiens, UniProt P37268)
T1 construct: PREPARATION OF HUMAN HEPG2 CELL ENZYME; host or cells: HepG2 (human hepatoblastoma), sonicated cell extract
T1 sequence (P37268 1-417): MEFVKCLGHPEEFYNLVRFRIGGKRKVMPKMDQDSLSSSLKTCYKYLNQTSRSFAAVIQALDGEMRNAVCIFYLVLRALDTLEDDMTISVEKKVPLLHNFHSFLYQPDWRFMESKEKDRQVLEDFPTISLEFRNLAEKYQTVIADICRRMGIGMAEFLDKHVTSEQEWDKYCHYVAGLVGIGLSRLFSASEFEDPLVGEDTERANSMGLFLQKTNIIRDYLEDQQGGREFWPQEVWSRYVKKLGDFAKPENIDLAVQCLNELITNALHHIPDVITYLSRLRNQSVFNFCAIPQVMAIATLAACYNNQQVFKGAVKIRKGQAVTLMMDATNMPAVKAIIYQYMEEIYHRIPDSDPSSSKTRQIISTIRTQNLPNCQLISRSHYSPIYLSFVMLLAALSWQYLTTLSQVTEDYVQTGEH
Test: Squalene synthase assay with human HepG2 cell enzyme
Assay type: biochemical
Details: HepG2 enzyme preparation, 3 μM 3H-farnesyl pyrophosphate substrate, 30° C., 20 minutes; read-out: IC50 (squalene synthase inhibition)
Experimental: The intrinsic squalene synthase inhibitory activity of the compounds of this invention was measured by the standard in vitro protocol described below:
PREPARATION OF HUMAN HEPG2 CELL ENZYME
1. Source: HEPG2 CELL LINE (Liver, hepatoblastoma, Human) ATCC No. HB 8065
Culture Medium: Minimum essential medium (MEM) with non-essential amino acids, sodium pyruvate, and 10% fetal bovine serum. The medium was changed twice weekly. […] The growth medium is prepared as listed below.
48 hrs. prior to harvest, switch cells grown in MEM with Fetal Calf serum to MEM with 10% delipidated serum.
Remove medium, wash with PBS, add fresh trypsin (0.25%)-EDTA (0.02%) with Hank's Balanced Salt solution, rinse and remove. Incubate flask at 37° C. until cells detach. Add 6 mL of MEM medium per flask to suspend cells and combine into centrifuge tube. […]
For each reaction, 55 μL of buffer mixture was taken with 5 μL of an inhibitor solution in DMSO and 10 μL of diluted enzyme (1 to 250 as described in the enzyme preparation; the final protein concentration of enzyme in the assay is 2 μg per mL.). […] 150 μL of heptane layer was then removed into a 96 deep well plate and mixed with 150 μL of scintillation fluid and the radioactivity was determined by liquid scintillation counting. […]
IC50 values were determined by plotting the log of the concentration of the test compound versus the percentage inhibition. […]

- IC50: < 2 µM
SMILES: C=C(CCC(=O)C(O)C(OC(=O)/C=C/C(C)CC(C)CC)C(=O)O)C(OC(C)=O)C(C)Cc1ccccc1 (stereo not shown) [Composition A]
